Measured values from patent publication EP0234178A1, “New 8-substituted derivatives of an anhydrooctonic acid, methods for their preparation, pharmaceutical preparations containing these and intermediates” (Astra Läkemedel Aktiebolag, priority 1985, dated 1987).

Key:
[1] = test system: S. typhimurium AG701 i50 (KdsA^ts); test: Test III Inhibition of incorporation of 3H-arabinose-5-phosphate into LPS; format: cell-based, Salmonella typhimurium; conditions: S. typhimurium AG701 i50, 30°C, samples after 10 min
Procedure: Arabinose-5-phosphate is a precursor of KDO in enteric bacteria. KdsA mutants of Salmonella typhimurium rapidly take up exogenous arabinose-5-phosphate and convert it to KDO which then appears exclusively in LPS (J. Biol. Chem. 255 (1980) 4257).
S. typhimurium AG701 i50 (KdsA^ts) was grown overnight at 30°C in minimal Medium (Eur. J. Biochem. 107 (1980) 145-153) supplemented with 1% glycerol and 0.01 mM D-fucose. The next day 0.1 ml of overnight culture was added to fresh medium and the culture grown at 30°C until mid logarithmic phase - (OD [formula] mm = 0.2) when 50 µl of "H-arabinose-5-phosphate (Amersham; specific activity 72 µCi/ml)-was added. After 10 min 0.45 ml samples were taken, the bacteria colleced by filtration (Whatman GF/F glass fibre filter) and washed with 6 ^x Iml PBS followed by 100 ml boiling water. This procedure ensures that all radioactive counts recorded represent arabinose-5-phosphate incorporated into LPS as KDO (J. Biol. Chem. 255 (1980) 4257).

[2] = test system: Gram-negative bacteria; test: Test I Bactericidal activity (viable count after exposure to drug); format: cell-based; conditions: final concentration of ImM, 15 min exposure, number of viable bacteria
Procedure: A range of Gram-negative bacteria were grown at 37°C in aerobic shake culture in nutrient broth for 16 h. O.I ml of these cultures were each inoculated into 5 ml of fresh broth and the cultures incubated further, until the bacteria reached mid-logarithmic phase, when the culture was harvested by centrifugation and resuspended in Basal Medium 2 (J Bacteriol 117 (1974) 3O2-311) to an OD 1cm 620 mm = 0.2 (equivalent to 10^8 bacteria/ml). Test compound was added to the bacterial suspension to give a final concentration of ImM. After 15 min exposure to drug the number of viable bacteria was determined by serial dilution in sterile phosphate buffered saline (PBS), plating out onto McConkey agar plates and incubating for 16 h at 37°C.

Structure (SMILES): C[C@H](N)C(=O)N[C@@H](C)C(=O)NC[C@@H](O)[C@H]1O[C@H](C(=O)O)C[C@@H](O)[C@H]1O [Compound 6, N-(L-alanyl-L-alanyl)-8-amino-2,6-anhydro-3,8-dideoxy-D-glycero-D-talo-octonic acid]
- incorporation of arabinose-5-phosphate into LPS / denovo LPS biosynthesis [1]: markedly inhibits
- inhibitory action against the bacteria [2]: inhibitory action
